The values that follow come from patent publication US7192953B2, “Antibacterial agents” (Vernalis (Oxford) Limited, priority 2002, dated 2007).

Values after ≈ are worked out from the molar mass of the structure shown. A value given as a limit tells only on which side of the number the result lay.

Holding throughout (type): cell-based
Assay [1] relates to M. catarrhalis. The experiment in a line: MIC by agar plate dilution against clinical isolates of M. catarrhalis. The note with it: 3 strains of M. catarrhalis (clinical isolates), 18 to 24 hr, 35° C; for MIC: Moraxella catarrhalis, read-out: MIC or MIC range, M. catarrhalis. As to the method: (§1) Minimal Inhibitory concentrations (MIC) of inhibitors against clinical isolates of S. pneumoniae, H. influenzae and M. catarrhalis obtained from the Public Health and Clinical Microbiology Laboratory, Addenbrooke's Hospital, Hills Road, Cambridge CB2 2QW, UK, were determined by a standard agar plate dilution method following recommended in British Society for Antimicrobial Chemotherapy Working Party. 1991. “A guide to sensitivity testing British Society for Antimicrobial Chemotherapy, London, United Kingdom”. Briefly Iso-Sensitest agar (pH 7.2: Oxoid, United Kingdom) was employed supplemented with 5% horse blood (Oxoid) and 20 μg of NAD (Sigma) per ml to support growth of fastidious bacteria. The inoculum used was approximately 10^4 colony forming units of each isolate contained in a volume of 1 μl. Plates were incubated 18 to 24 hr in air, or for fastidious bacteria an atmosphere enriched with 4–6% carbon dioxide at 35° C. The MIC was determined as the lowest concentration of an antimicrobial tested that inhibited growth of the inoculum, disregarding a single persisting colony or faint haze caused by the inoculation.
(§2) The compounds of the Examples were are antibacterially active in the above assays, The following table states the MICs or MIC ranges of the tested compounds against 6 strains of S. pneumoniae, 4 strains of H. influenzae and 3 strains of M. catarrhalis.

The subject of assay [2] is S. pneumoniae. The experiment in a line: MIC by agar plate dilution against clinical isolates of S. pneumoniae. Particulars: 6 strains of S. pneumoniae (clinical isolates), 18 to 24 hr, 35° C; for MIC: Streptococcus pneumoniae, read-out: MIC or MIC range, S. pneumoniae. As to the method:
as §1, §2

Assay [3] deals with H. influenzae. The experiment in a line: MIC by agar plate dilution against clinical isolates of H. influenzae. The note with it: 4 strains of H. influenzae (clinical isolates), 18 to 24 hr, 35° C; for MIC: Haemophilus influenzae, read-out: MIC or MIC range, H. Influenzae. The protocol:
as §1, §2

On to `O=CN(O)C[C@@H](CC1CCCC1)C(=O)N1CCCCN1C(=O)N1CCC(Cc2ccccc2)CC1` [Example 22, N-{(2R)-Cyclopentylmethyl-3-[2-(4-benzylpiperidine-1-Carbonyl)-tetrahydropyridazin-1-yl]-3-oxo-propyl}-N-hydroxyformamide], for which the MIC was 2 µg/mL (≈ 4.13 µM) in assay [1] and 4 to 16 µg/mL (≈ 8.25 to 33 µM) in assay [2].
For `O=CN(O)C[C@@H](CC1CCCC1)C(=O)N1CCCN1C(=O)c1cccnc1` [Example 36, N-{(2R)-Cyclopentylmethyl-3-[2-(pyridine-3-Carbonyl)-pyrazolidin-1-yl]-3-oxo-propyl}N-hydroxyformamide], the MIC was 2 to 32 µg/mL (≈ 5.34 to 85.5 µM) in assay [3], 0.125 µg/mL (≈ 0.334 µM) in assay [1] and 8 µg/mL (≈ 21.4 µM) in assay [2].
The matching figures for `O=CN(O)C[C@@H](CC1CCCC1)C(=O)N1CCCN1C(=O)c1ccccc1` [Example 27, N-{(2R)-Cyclopentylmethyl-3-[2-benzoyl-pyrazolidin-1-yl]-3-oxo-propyl}-N-hydroxyformamide]: 2 to 16 µg/mL (≈ 5.36 to 42.8 µM), 0.06 µg/mL (≈ 0.161 µM) and 16 µg/mL (≈ 42.8 µM).
Take “(2R)-Cyclopentylmethyl-3-[2-(furan-2-Carbonyl)-pyrazolidin-1-yl]-3-oxo-propyl}formamide [Example 25]”: the “MIC or MIC range, H. Influenzae” value in assay [3] was below 0.125 to 1 µg/mL. Besides, in assay [1], the “MIC or MIC range, M. catarrhalis” value is below 0.125 µg/mL. Also, in assay [2], the “MIC or MIC range, S. pneumoniae” value lay within 4 to 8 µg/mL.
Turning to `O=CN(O)C[C@@H](CC1CCCC1)C(=O)N1CCCN1C(=O)c1ccc(C(F)(F)F)cc1` [Example 28, N-{(2R)-Cyclopentylmethyl-3-[2-(4-trifluoromethylbenzoyl)-pyrazolidin-1-yl]-3-oxo-propyl}-N-hydroxyformamide], the MIC in assay [3] is 16 µg/mL (≈ 36.2 µM); in assay [1], 0.06 µg/mL (≈ 0.136 µM); in assay [2], 0.5 to 4 µg/mL (≈ 1.13 to 9.06 µM).
For `O=CN(O)C[C@@H](CC1CCCC1)C(=O)N1CCCN1C(=O)c1ccc2c(c1)OCO2` [Example 34, N-{(2R)-Cyclopentylmethyl-3-[2-(benzo[1,3]-dioxole-5-Carbonyl)-pyrazolidin-1-yl]-3-oxo-propyl}N-hydroxyformamide], the results for the MIC in assay [3], in assay [1] and in assay [2] were 4 to 16 µg/mL (≈ 9.58 to 38.3 µM), 0.125 µg/mL (≈ 0.299 µM) and 8 to 16 µg/mL (≈ 19.2 to 38.3 µM), respectively.
Take `CC(C)(C)OC(=O)N1CCCCN1C(=O)[C@H](CC1CCCC1)CN(O)C=O` [Example 24, 2-[(2R)-Cyclopentylmethyl-3-(formylhydroxyamino)-propionyl]-tetrahydropyridazine-1-Carboxylic acid tert-butyl ester]: the MIC in assay [3] was 1 to 4 µg/mL (≈ 2.61 to 10.4 µM); in assay [1] it was below 0.125 µg/mL; in assay [2] it was 4 to 16 µg/mL (≈ 10.4 to 41.7 µM).
The like results for `O=CN(O)C[C@@H](CC1CCCC1)C(=O)N1CCCN1C(=O)c1ccc(N2CCOCC2)nc1` [Example 32, N-{(2R)-Cyclopentylmethyl-3-[2-(6-morpholin-4-yl-pyridine-3-Carbonyl)-pyrazolidin-1-yl]-3-oxo-propyl}-N-hydroxyformamide] were, in that order, 16 µg/mL (≈ 34.8 µM), 0.25 µg/mL (≈ 0.544 µM) and 1 to 8 µg/mL (≈ 2.18 to 17.4 µM).
`O=CN(O)C[C@@H](CC1CCCC1)C(=O)N1CCCCN1C(=O)c1ccc(F)cc1` [Example 10, N-{(2R)-Cyclopentylmethyl-3-[2-(4-fluorobenzoyl)-tetrahydropyridazin-1-yl]-3-oxo-propyl}-N-hydroxyformamide]: the MIC is 0.5 to 2 µg/mL (≈ 1.23 to 4.93 µM) in assay [3], 0.5 µg/mL (≈ 1.23 µM) in assay [1] and 0.5 to 4 µg/mL (≈ 1.23 to 9.87 µM) in assay [2].
The like results for `COCC(=O)N1CCCN1C(=O)[C@H](CC1CCCC1)CN(O)C=O` [Example 26, N-{(2R)-Cyclopentylmethyl-3-[2-(2-methoxyacetyl)-pyrazolidin-1-yl]-3-oxo-propyl}N-hydroxyformamide] were, in that order, 1 to 8 µg/mL (≈ 2.93 to 23.4 µM), 0.125 µg/mL (≈ 0.366 µM) and 8 µg/mL (≈ 23.4 µM).
As for `CN(C(=O)N1CCCCN1C(=O)[C@H](CC1CCCC1)CN(O)C=O)c1ccccc1` [Example 21, 2-[(2R)-Cyclopentylmethyl-3-(formylhydroxyamino)-propionyl]-tetrahydropyridazine-1-Carboxylic acid methylphenylamide], the “MIC or MIC range, H. Influenzae” value in assay [3] fell in the range of 4 to 16 µg/mL. Besides, the “MIC or MIC range, M. catarrhalis” value in assay [1] came to 0.125 µg/mL (≈ 0.3 µM). Besides, the “MIC or MIC range, S. pneumoniae” value in assay [2] lay within 1 to 4 µg/mL.
As for `COCC(=O)N1CCCCN1C(=O)[C@H](CC1CCCC1)CN(O)C=O` [Example 2, N-{(2R)-Cyclopentylmethyl-3-[2-(2-methoxyacetyl)tetrahydropyridazin-1-yl]-3-oxo-propyl}-N-hydroxyformamide], the figures for the MIC in assay [3], in assay [1] and in assay [2] were 0.25 to 8 µg/mL (≈ 0.703 to 22.5 µM), 0.25 µg/mL (≈ 0.703 µM) and 1 to 8 µg/mL (≈ 2.81 to 22.5 µM), respectively.
For `COc1ccc(C(=O)N2CCCCN2C(=O)[C@H](CC2CCCC2)CN(O)C=O)cc1` [Example 7, N-{(2R)-Cyclopentylmethyl-3-[2-(4-methoxybenzoyl)-tetrahydropyridazin-1-yl]-3-oxo-propyl}-N-hydroxyformamide], the MIC is 0.5 µg/mL (≈ 1.2 µM) in assay [1] and 0.5 to 4 µg/mL (≈ 1.2 to 9.58 µM) in assay [2].
As for “(2R)-Cyclopentylmethyl-3-[2-(furan-2-Carbonyl)-tetrahydropyridazin-1-yl]-3-oxo-propyl}formamide [Example 1]”, the “MIC or MIC range, H. Influenzae” value in assay [3] was below 0.125 to 0.25 µg/mL. In assay [1], the “MIC or MIC range, M. catarrhalis” value is below 0.125 µg/mL. Further, the “MIC or MIC range, S. pneumoniae” value in assay [2] is 0.5 to 2 µg/mL.
Regarding `O=CN(O)C[C@@H](CC1CCCC1)C(=O)N1CCCCN1C(=O)c1ccncc1` [Example 5, N-{(2R)-Cyclopentylmethyl-3-[2-(pyridine-4-Carbonyl)-tetrahydropyridazin-1-yl]-3-oxo-propyl}-N-hydroxyformamide], the figures for the MIC in assay [1] and in assay [2] were 0.25 µg/mL (≈ 0.644 µM) and 2 to 16 µg/mL (≈ 5.15 to 41.2 µM), respectively.
Take `COc1cccc(NC(=O)N2CCCCN2C(=O)[C@H](CC2CCCC2)CN(O)C=O)c1` [Example 15, 2-[(2R)-Cyclopentylmethyl-3-(formylhydroxyamino)-propionyl]-tetrahydropyridazine-1-Carboxylic acid (3-methoxyphenyl)amide]: the MIC in assay [3] is 0.125 to 4 µg/mL (≈ 0.289 to 9.25 µM); in assay [1], below 0.125 µg/mL; in assay [2], 2 to 4 µg/mL (≈ 4.62 to 9.25 µM).
The matching figures for `COc1ccc(C(=O)N2CCCN2C(=O)[C@H](CC2CCCC2)CN(O)C=O)cc1` [Example 33, N-{(2R)-Cyclopentylmethyl-3-[2-(4-methoxybenzoyl)-pyrazolidin-1-yl]-3-oxo-propyl}-N-hydroxyformamide]: 16 to 32 µg/mL (≈ 39.7 to 79.3 µM), 0.06 µg/mL (≈ 0.149 µM) and 4 to 16 µg/mL (≈ 9.91 to 39.7 µM).
As to `CN(C(=O)N1CCCN1C(=O)[C@H](CC1CCCC1)CN(O)C=O)c1ccccc1` [Example 43, 2-[(2R)-Cyclopentylmethyl-3-(formylhydroxyamino)-propionyl]-pyrazolidine-1-Carboxylic acid methylphenylamide], the “MIC or MIC range, H. Influenzae” value in assay [3] was 16 to 32 µg/mL. For the same molecule, the “MIC or MIC range, M. catarrhalis” value in assay [1] came out at 8 µg/mL (≈ 19.9 µM).
`O=CN(O)C[C@@H](CC1CCCC1)C(=O)N1CCCN1C(=O)Nc1ccc(C(F)(F)F)cc1` [Example 42, 2-[(2R)-Cyclopentylmethyl-3-(formylhydroxyamino)-propionyl]-pyrazolidine-1-Carboxylic acid (4-trifluoromethylphenyl)amide]: the MIC in assay [3] and in assay [2] was 2 to 8 µg/mL (≈ 4.38 to 17.5 µM) throughout.
In the case of `O=CN(O)C[C@@H](CC1CCCC1)C(=O)N1CCCCN1C(=O)c1ccc(C(F)(F)F)cc1` [Example 4, N-{(2R)-Cyclopentylmethyl-3-[2-(4-trifluoromethylbenzoyl)-tetrahydropyridazin-1-yl]-3-oxo-propyl}-N-hydroxyformamide], the figures for the MIC in assay [1] and in assay [2] were 0.5 µg/mL (≈ 1.1 µM) and 0.5 to 4 µg/mL (≈ 1.1 to 8.78 µM), respectively.
`O=CN(O)C[C@@H](CC1CCCC1)C(=O)N1CCCN1C(=O)c1ccncc1` [Example 30, N-{(2R)-Cyclopentylmethyl-3-[2-(pyridine-4-Carbonyl)-pyrazolidin-1-yl]-3-oxo-propyl}-N-hydroxyformamide]: the MIC in assay [1] is 0.125 µg/mL (≈ 0.334 µM); in assay [2] it was 16 to 32 µg/mL (≈ 42.7 to 85.5 µM).
For the molecule `O=C(C[C@@H](CC1CCCC1)C(=O)N1CCCCN1C(=O)Nc1ccccc1)NO` [Example 45, 2-[(2R)-Cyclopentylmethyl-3-hydroxycarbamoylpropionyl]-tetrahydropyridazine-1-Carboxylic acid phenylamide], in assay [3], the “MIC or MIC range, H. Influenzae” value was 1 to 4 µg/mL. The “MIC or MIC range, S. pneumoniae” value in assay [2] lay in the range of 4 to 8 µg/mL.
Turning to `O=CN(O)C[C@@H](CC1CCCC1)C(=O)N1CCCCN1C(=O)Nc1cc(C(F)(F)F)cc(C(F)(F)F)c1` [Example 13, 2-[(2R)-Cyclopentylmethyl-3-(formylhydroxyamino)-propionyl]-tetrahydropyridazine-1-Carboxylic acid (3,5-bis-(trifluoromethyl)phenyl)amide], in assay [1], the “MIC or MIC range, M. catarrhalis” value stood at 2 µg/mL (≈ 3.71 µM). The “MIC or MIC range, S. pneumoniae” value in assay [2] was in the range of 8 to 16 µg/mL.
For the molecule `O=CN(O)C[C@@H](CC1CCCC1)C(=O)N1CCCN1C(=O)c1ccoc1` [Example 37, N-{(2R)-Cyclopentylmethyl-3-[2-(furan-3-Carbonyl)-pyrazolidin-1-yl]-3-oxo-propyl}-N-hydroxyformamide], the MIC was 0.06 µg/mL (≈ 0.165 µM) in assay [1] and 4 µg/mL (≈ 11 µM) in assay [2].
